Experimental data from patent US20230255961A1, “Rotomeric Isomers of 4-Alkyl-5-Heteroaryl-3H-1,2-Dithiole-3-Thiones” (ST IP Holding AG, priority 2020, published 2023).
Like-named read-outs stand apart in the source and are kept apart here.

Tests used:
UCP2 = assay: Human oxidative stress RT2 Profiler PCR array in HGEPp cells: UCP2; assay type: cell-based; conditions: HGEPp cells pretreated 24 h at 100 μg/ml; ΔΔCt
Description: (§1) RT-PCR was performed on an iCycler.

ALOX12 = assay: Human oxidative stress RT2 Profiler PCR array in HGEPp cells: ALOX12; assay type: cell-based; conditions: HGEPp cells pretreated 24 h at 100 μg/ml; ΔΔCt
Description: as §1

PRDX2 = assay: Human oxidative stress RT2 Profiler PCR array in HGEPp cells: PRDX2; conditions: HGEPp cells pretreated 24 h at 100 μg/ml; ΔΔCt
Description: (§3) Pooled primary HGEPp cells were propagated in CnT-Prime epithelial culture medium provided by CellnTec on 100 mm petri dishes coated with 30 mg/ml Type I rat tail collagen (BD Biosciences) diluted in Duibecco's phosphate-buffered saline (DPBS). HGEPp cells were grown in 12×60 mm Nunc™ Cell Culture dishes at a 2.5×10^4 cells/cm2 density concentration.
(§4) All dosing solutions contained 0.3% of DMSO which is well below the maximum tolerated DMSO percent of 0.8% for HGEPp cells.
(§5) The RN-easy UCP Micro Kit was used to purify mRNA from the HGEPp cells.
(§6) The assay was reliably used to analyze expression levels of 84 genes related to oxidative stress in HGEPp cells pre-treated with ST-617-APT, ST-617-DPT and the rotomeric complexes at 100 μg/ml for 24 h. The cDNA from above was mixed with the RT2 SYBR Green fluor Mastermix and aliquoted into the wells of the RT2 Profiler PCR Array. RT-PCR was performed on an iCycler. Gene expression was compared using et values and the results were calculated using ΔΔ Ct method with normalization to the average expression levels of the five common genes (ACTB, B2M, GAPDH, HPRT, and RPL13A).

rat cortical neurons = assay: Caspase 3/7 activation assay, OGD-induced neurotoxicity in rat cortical neurons; assay type: cell-based; conditions: 100 μg/ml, 1 h incubation eighteen hours prior to OGD; FIG. 7
Description: The effect of the rotomer complexes of Examples 1, 2, 3 and 9 on neurotoxicity induced by oxygen glucose deprivation (OGD) was tested in a caspase 3/7 activation assay. The assay was applied to freshly isolated rat cortical neurons cultured in 96-well-plates and exposed to the compounds at 100 μg/ml.
In vitro ischemic injury was induced in rat primary neuronal culture by oxygen-glucose deprivation for 2 hours. Neurons were incubated with the compounds for 1 hour eighteen hours prior to the OGD induction. Dizocilpine (MK801) 10 μM was used as positive neuroprotection control. After treatments, incubated with three optically compatible fluorescent dyes, and subsequently analyzed with BD Pathway 855 (Becton Dickinson). Cell parameters associated with caspase 3/7 activation—indicative of pre-lethal cytotoxic effects—were measured by high content screening at single cell level.
Primary cultures of cortical neurons were isolated from cerebral cortices of Sprague-Dawley rat fetuses at embryonic day 18. Brains were removed and after removing the meninges, the tissues were dissected under a binocular microscope. Neurons were enzymatically dispersed by trypsin 0.2% and DNAse […] digestion for 10 min at 37° C. plated in poly-L-lysine wells and incubated with B27 supplemented neurobasal medium.
Cortical neurons of 18 days old embryonic rats were plated in poly-1-lysine coated 96-well plates (30,000 cells per well). Cells were maintained in neurobasal medium supplemented with B-27 component: for 5 days at 37° C. in a humidified 5% CO2 atmosphere. At day 5, cells were subjected to oxygen glucose deprivation (OGD) for 2 hours at 37° C. The cultures were placed in an […] chamber (Billops-Rothenberg) and incubated in neurobasal medium lacking glucose and B27 factor and aerated with an anaerobic gas mixture (94.7% N2. 5% CO2, 0.3% O2) to remove residual oxygen. Control cultures were kept in the original neurobasal medium but were submitted to the anaerobic conditions. At the end of the OGD conditions, the cells were removed from the anaerobic chamber, the OGD medium was replaced with neurobasal medium containing glucose, and the cells were incubated for an additional 24 h. The test compounds were added to the neurons eighteen hours prior to the OGD induction and maintained for 1 h. Replicate cultures were treated as described above with dizocilpine (MK801) as positive control of neuroprotection. The neuroprotective potential of the four rotomer complexes was determined by a caspase 3/7 activation assay.
(§2) Caspase 3/7 activation was determined using The CellEvent® Caspase-3/7 Green Detection Reagent which is intrinsically a non-fluorescent peptide that inhibits the ability of the dye to bind to DNA. However, after caspase-3/7 activation in apoptotic cells, the peptide is cleaved allowing the dye to bind to DNA producing a bright, fluorogenic response. Cell were stained with 5 μM reagent, washed 3 times and measured at 488 nm/530 nm Ex/Em. This dye permits the direct quantification of apoptotic cells.

GSTP1 = assay: Human oxidative stress RT2 Profiler PCR array in HGEPp cells: GSTP1; assay type: cell-based; conditions: HGEPp cells pretreated 24 h at 100 μg/ml; ΔΔCt
Description: as §1

PTGS1 = assay: Human oxidative stress RT2 Profiler PCR array in HGEPp cells: PTGS1; assay type: cell-based; conditions: HGEPp cells pretreated 24 h at 100 μg/ml; ΔΔCt
Description: as §1

NQO1 = assay: Human oxidative stress RT2 Profiler PCR array in HGEPp cells: NQO1; assay type: cell-based; conditions: HGEPp cells pretreated 24 h at 100 μg/ml; ΔΔCt
Description: as §1

[1] = test system: oxidative stress-related genes in HGEPp cells; assay: Human oxidative stress RT2 Profiler PCR array in HGEPp cells: statements over several genes; conditions: for SOD1, NQ01, GCLC, GSTP1 and GCLM; 100 μg/ml, 24 h
Description: as §3, §4, §5, §6

GCLC = assay: Human oxidative stress RT2 Profiler PCR array in HGEPp cells: GCLC; assay type: cell-based; conditions: HGEPp cells pretreated 24 h at 100 μg/ml; ΔΔCt
Description: as §1

GCLM = assay: Human oxidative stress RT2 Profiler PCR array in HGEPp cells: GCLM; assay type: cell-based; conditions: HGEPp cells pretreated 24 h at 100 μg/ml; ΔΔCt
Description: as §1

SOD1 = assay: Human oxidative stress RT2 Profiler PCR array in HGEPp cells: SOD1; assay type: cell-based; conditions: HGEPp cells pretreated 24 h at 100 μg/ml; ΔΔCt
Description: as §1

HGEPp cells [2] = assay: ROS production in H2O2-induced oxidatively stressed HGEPp cells; assay type: cell-based, human; conditions: HGEPp cells pretreated 24 hrs at 100 μg/mL prior to 0.3 mM H2O2 for 4 h; positive control 139%
Description: That same assay was carried out on the rotomer compositions prepared in Examples 1-11 above to determine their effect on protecting primary human gingival epithelial cells (HGEPp) cells from oxidative damage induced by hydrogen peroxide (H2O2).

GTF2i = assay: Human oxidative stress RT2 Profiler PCR array in HGEPp cells: GTF2i; assay type: cell-based; conditions: HGEPp cells pretreated 24 h at 100 μg/ml; ΔΔCt
Description: as §1

GPX1 = assay: Human oxidative stress RT2 Profiler PCR array in HGEPp cells: GPX1; assay type: cell-based; conditions: HGEPp cells pretreated 24 h at 100 μg/ml; ΔΔCt
Description: as §1

MPO = assay: Human oxidative stress RT2 Profiler PCR array in HGEPp cells: MPO; conditions: HGEPp cells pretreated 24 h at 100 μg/ml; ΔΔCt
Description: as §3, §4, §5, §6

GPX4 = assay: Human oxidative stress RT2 Profiler PCR array in HGEPp cells: GPX4; conditions: HGEPp cells pretreated 24 h at 100 μg/ml; ΔΔCt
Description: as §3, §4, §5, §6

[3] = test system: mouse neonatal primary cardiomyocyte; conditions: 100 μg/ml, 4 hours prior to OGD, during 18 h OGD and 24 h recovery; FIG. 9
Description: as §2

HGEPp cells [4] = conditions: 100 μg/mL pretreatment; taken from PCT/IB2017/001312; cited from earlier work

Row | SMILES | UCP2 down regulation relative fold change (UCP2) | ALOX12 up regulation relative fold change (ALOX12) | PRDX2 down regulation relative fold change (PRDX2) | OGD induced caspase 3/7 activation (rat cortical neurons) | neuroprotection (rat cortical neurons) | GSTP1 up regulation relative fold change (GSTP1) | PTGS1 down regulation relative fold change (PTGS1) | NQO1 up regulation relative fold change (NQO1) | up-regulation compared to ST-617-DPI and ST-617-DPI [1] | GCLC up regulation relative fold change (GCLC) | GCLM up regulation relative fold change (GCLM) | SOD1 up regulation relative fold change (SOD1) | ROS level relative to Normal (100%, optical density baseline) (HGEPp cells [2]) | GTF2i down regulation relative fold change (GTF2i) | GPX1 up regulation relative fold change (GPX1) | MPO up regulation relative fold change (MPO) | GPX4 up regulation relative fold change (GPX4) | cardioprotection [3] | ROS level relative to Normal (100%, optical density baseline) (HGEPp cells [4])
1 | COP(=O)([O-])OC.Cc1c(-c2c[n+](C)ccn2)ssc1=S [Example 9, dimethyl phosphate complex of N-methyl oltipraz] | 0.15 fold | 6.43 fold | 0.27 fold | significantly reduced | high degree of neuroprotection | 3.16 fold | 0.21 fold | 4.24 fold | significantly higher up-regulation | 4.60 fold | 3.15 fold | 5.22 fold | 112% | 0.28 fold | 4.89 fold | 3.41 fold | 2.93 fold | significant degree of cardioprotection | –
2 | Cc1c(-c2cnccn2)ssc1=S [ST-617-API, 4-methyl-5-(pyrazin-2-yl)-3H-1,2-dithiole-3-thione, reference compound] | – | – | – | – | – | – | 6.22 fold | – | – | – | – | – | – | – | – | – | – | – | 124%
